Laboratory results from ChEMBL document CHEMBL1149357, “Propionylpiperazines as human melanocortin-4 receptor ligands” (Bioorg Med Chem Lett, 2006).

Legend:
Melanocortin receptor 4 [1] = molecular target: T1, Melanocortin receptor 4 (Homo sapiens, UniProt P32245); assay: Displacement of [125I]NDP-MSH from human MC4R stably expressed in HEK293 cells; assay type: cell-based
[2] = Bioavailability in mouse at 10 mg/kg, po; assay type: ADME, organism-based; settings: in vivo
Melanocortin receptor 3 = Melanocortin receptor 3 (Homo sapiens, UniProt P41968); assay: Displacement of [125I]NDP-MSH from human MC3R stably expressed in HEK293 cells; assay type: cell-based
[3] = Tmax in mouse at 10 mg/kg, po; assay type: ADME, organism-based; design: dose 10 mg/kg, route oral; settings: in vivo
[4] = Half life in mouse at 5 mg/kg, iv; assay type: ADME, organism-based; design: dose 5 mg/kg, route intravenous; settings: in vivo
[5] = Drug level in mouse brain at 5 mg/kg, iv after 1 hr; assay type: ADME, organism-based; design: dose 5 mg/kg, route intravenous; settings: read-out: Drug uptake
[6] = Cmax in mouse at 10 mg/kg, po; assay type: ADME, organism-based; design: dose 10 mg/kg, route oral; settings: in vivo
[7] = molecular target: Melanocyte-stimulating hormone receptor (Homo sapiens, UniProt Q01726); assay: Displacement of [125I]NDP-MSH from human MC1R stably expressed in HEK293 cells; assay type: cell-based
[8] = Volume of distribution in mouse at 5 mg/kg, iv; assay type: ADME, organism-based; design: dose 5 mg/kg, route intravenous; settings: in vivo, read-out: Vdss
Melanocortin receptor 4 [9] = molecular target: T1, Melanocortin receptor 4; assay: Activity at MC4R assessed as inhibition of alpha MSH-stimulated cAMP production in HEK293 cells; assay type: functional, cell-based
Mus musculus [10] = assay: AUC in mouse at 10 mg/kg, po; assay type: ADME, organism-based, Plasma; design: dose 10 mg/kg, route oral; settings: in vivo
[11] = Lipophilicity, log D of the compound; assay type: physicochemical; settings: octanol/water
[12] = Drug level in mouse brain at 5 mg/kg, iv after 4 hrs; assay type: ADME, organism-based; design: dose 5 mg/kg, route intravenous; settings: read-out: Drug uptake
Mus musculus [13] = assay: AUC in mouse at 5 mg/kg, iv; assay type: ADME, organism-based, Plasma; design: dose 5 mg/kg, route intravenous; settings: in vivo
[14] = Clearance in mouse at 5 mg/kg, iv; assay type: ADME, organism-based; design: dose 5 mg/kg, route intravenous; settings: in vivo
Melanocortin receptor 5 = Melanocortin receptor 5 (Homo sapiens, UniProt P33032); assay: Displacement of [125I]NDP-MSH from human MC5R stably expressed in HEK293 cells; assay type: cell-based
Chain of Melanocortin receptor 5 (P33032 whole entry): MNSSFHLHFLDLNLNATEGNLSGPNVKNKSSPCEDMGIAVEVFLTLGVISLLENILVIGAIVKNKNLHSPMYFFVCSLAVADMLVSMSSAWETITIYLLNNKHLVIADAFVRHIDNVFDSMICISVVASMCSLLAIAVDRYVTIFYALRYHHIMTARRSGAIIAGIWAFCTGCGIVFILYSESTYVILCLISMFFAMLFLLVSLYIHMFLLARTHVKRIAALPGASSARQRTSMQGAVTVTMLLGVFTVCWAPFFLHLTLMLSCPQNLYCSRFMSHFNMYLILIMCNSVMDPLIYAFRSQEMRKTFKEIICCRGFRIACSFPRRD

T1 sequence (P32245 whole entry): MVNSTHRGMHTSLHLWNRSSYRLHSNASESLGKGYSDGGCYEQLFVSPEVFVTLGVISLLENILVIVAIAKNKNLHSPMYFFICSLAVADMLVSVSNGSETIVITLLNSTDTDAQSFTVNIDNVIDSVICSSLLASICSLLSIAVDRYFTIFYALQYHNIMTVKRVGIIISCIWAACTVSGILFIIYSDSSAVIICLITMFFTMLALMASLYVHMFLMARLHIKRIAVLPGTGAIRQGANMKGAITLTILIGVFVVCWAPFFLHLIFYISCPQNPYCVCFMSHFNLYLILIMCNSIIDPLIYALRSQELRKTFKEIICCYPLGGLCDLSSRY
Chain of Melanocortin receptor 3 (P41968 whole entry): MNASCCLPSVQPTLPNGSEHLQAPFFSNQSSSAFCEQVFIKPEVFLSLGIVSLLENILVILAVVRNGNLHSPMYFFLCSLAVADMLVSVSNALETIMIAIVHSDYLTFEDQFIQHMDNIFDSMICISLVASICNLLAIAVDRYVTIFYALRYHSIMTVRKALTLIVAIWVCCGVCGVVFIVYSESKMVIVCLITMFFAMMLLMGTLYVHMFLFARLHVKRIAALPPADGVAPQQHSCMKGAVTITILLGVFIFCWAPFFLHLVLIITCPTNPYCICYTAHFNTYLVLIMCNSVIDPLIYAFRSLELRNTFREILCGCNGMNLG

Structure (SMILES) | Ki (Melanocortin receptor 4 [1]) [nM] | other results
CC(C)C[C@H](N)c1cc(C(F)(F)F)ccc1N1CCN(C(=O)C(C)Cc2cccc(Cl)c2)CC1 (stereo not given in full) | 920 | –
CC(C)C[C@H](N)c1cc(C(F)(F)F)ccc1N1CCN(C(=O)COc2ccccc2Cl)CC1 | 4500 | –
CC(C)C[C@H](N)c1cc(C(F)(F)F)ccc1N1CCN(C(=O)CC(C)C(=O)c2ccc(Cl)cc2)CC1 (stereo not given in full) | 1100 | –
CC(C)C[C@H](N)c1cc(C(F)(F)F)ccc1N1CCN(C(=O)COc2ccc3ccccc3c2)CC1 | 2000 | –
CC(C)C[C@H](N)c1cc(C(F)(F)F)ccc1N1CCN(C(=O)CSc2ccc(Cl)cc2Cl)CC1 | 1500 | –
CC(C)C[C@H](N)c1cc(C(F)(F)F)ccc1N1CCN(C(=O)CCNC2CCCCC2)CC1 | 4800 | –
COc1ccc(CC(C)C(=O)N2CCN(c3ccc(Cl)cc3[C@@H](N)CC(C)C)CC2)cc1 (stereo not given in full) | 160 | –
CC(C)C[C@H](N)c1cc(C(F)(F)F)ccc1N1CCN(C(=O)COc2ccccc2)CC1 | > 10000 | –
CC(C)C[C@H](N)c1cc(C(F)(F)F)ccc1N1CCN(C(=O)Cc2ccc(Cl)cc2Cl)CC1 | 2800 | –
Cc1cc(Cl)ccc1C[C@@H](C)C(=O)N1CCN(c2ccccc2[C@H](N)CC(C)C)CC1 | 1700 | –
Cc1ccc(OCC(=O)N2CCN(c3ccc(C(F)(F)F)cc3[C@@H](N)CC(C)C)CC2)c(C)c1 | 4000 | –
CC(C)C[C@H](N)c1cc(C(F)(F)F)ccc1N1CCN(C(=O)CCC(N)=O)CC1 | > 10000 | –
COc1ccc(CC(C)C(=O)N2CCN(c3ccc(C(F)(F)F)cc3[C@@H](N)CC(C)C)CC2)cc1 (stereo not given in full) | 120 | –
CC(C)C[C@H](N)c1cc(C(F)(F)F)ccc1N1CCN(C(=O)COc2cccc(Cl)c2Cl)CC1 | 2500 | –
COc1cccc(CC(C)C(=O)N2CCN(c3ccc(C(F)(F)F)cc3[C@@H](N)CC(C)C)CC2)c1 (stereo not given in full) | 3100 | –
CC(C)C[C@H](N)c1cc(C(F)(F)F)ccc1N1CCN(C(=O)C(C)Cc2ccc(Cl)c(Cl)c2)CC1 (stereo in doubt; 8q) | 1600 | –
COc1ccc(OCC(=O)N2CCN(c3ccc(C(F)(F)F)cc3[C@@H](N)CC(C)C)CC2)cc1 | 3800 | –
Cc1ccc(CC(C)C(=O)N2CCN(c3ccc(C(F)(F)F)cc3[C@@H](N)CC(C)C)CC2)c(C)c1 (stereo not given in full) | 92 | –
CC(C)C[C@H](N)c1cc(C(F)(F)F)ccc1N1CCN(C(=O)COc2cccc(Cl)c2)CC1 | 2600 | –
CC(C)C[C@H](N)c1cc(F)ccc1N1CCN(C(=O)C(C)Cc2ccc(Cl)cc2)CC1 (stereo not given in full) | 390 | –

Structure (SMILES) | Ki (Melanocortin receptor 4 [1]) [nM] | other results
CC(C)C[C@H](N)c1cc(C(F)(F)F)ccc1N1CCN(C(=O)COc2cccc3ccccc23)CC1 | 2600 | –
CC(C)C[C@H](N)c1cc(C(F)(F)F)ccc1N1CCN(C(=O)C(C)Cc2ccc(Cl)c(Cl)c2)CC1 (stereo in doubt; 8j) | 120 | –
CC(C)C[C@H](N)c1cc(C(F)(F)F)ccc1N1CCN(C(=O)[C@@H](C)Cc2ccc(Cl)cc2Cl)CC1 | 140 | –
CC(C)C[C@H](N)c1cc(C(F)(F)F)ccc1N1CCN(C(=O)CCC(=O)N(C)C)CC1 | > 10000 | –
CC(C)C[C@H](N)c1cc(C(F)(F)F)ccc1N1CCN(C(=O)CCC2CCCCC2)CC1 | 5700 | –
CC(C)C[C@H](N)c1cc(C(F)(F)F)ccc1N1CCN(C(=O)Cn2cnc3ccccc32)CC1 | 2100 | –
CC(C)C[C@H](N)c1cc(C(F)(F)F)ccc1N1CCN(C(=O)COc2ccc(Cl)c(Cl)c2)CC1 | 2500 | –
CC(C)C[C@H](N)c1cc(C(F)(F)F)ccc1N1CCN(C(=O)CCCC2CCCCC2)CC1 | 4100 | –
COc1ccc(CC(C)C(=O)N2CCN(c3ccc(C(F)(F)F)cc3[C@@H](N)CC(C)C)CC2)cc1F (stereo not given in full) | 200 | –
CC(C)C[C@H](N)c1cc(C(F)(F)F)ccc1N1CCN(C(=O)COc2ccc([N+](=O)[O-])cc2)CC1 | 3100 | –
CC(C)C[C@H](N)c1cc(C(F)(F)F)ccc1N1CCN(C(=O)CNc2ccccc2)CC1 | 3600 | –
Cc1ccc(OCC(=O)N2CCN(c3ccc(C(F)(F)F)cc3[C@@H](N)CC(C)C)CC2)cc1 | 4400 | –
COc1cc(CC(C)C(=O)N2CCN(c3ccc(C(F)(F)F)cc3[C@@H](N)CC(C)C)CC2)ccc1Cl (stereo not given in full) | 230 | –
CCOc1cccc(CC(C)C(=O)N2CCN(c3ccc(C(F)(F)F)cc3[C@@H](N)CC(C)C)CC2)c1 (stereo not given in full) | 2200 | –
CC(C)C[C@H](N)c1ccccc1N1CCN(C(=O)[C@H](C)Cc2ccc(Cl)cc2)CC1 | 80 | –
CC(C)C[C@H](N)c1cc(C(F)(F)F)ccc1N1CCN(C(=O)COc2ccc(Cl)cc2)CC1 | 2900 | –
CC(C)C[C@H](N)c1cc(C(F)(F)F)ccc1N1CCN(C(=O)COc2ccc(Cl)cc2Cl)CC1 | 4200 | –
CC(C)C[C@H](N)c1cc(C(F)(F)F)ccc1N1CCN(C(=O)CCC(=O)c2ccc(Cl)cc2)CC1 | 820 | –
CC(C)C[C@H](N)c1cc(C(F)(F)F)ccc1N1CCN(C(=O)COc2ccc(O)cc2)CC1 | 4600 | –
Cc1ccc(CC(C)C(=O)N2CCN(c3ccc(C(F)(F)F)cc3[C@@H](N)CC(C)C)CC2)cc1C (stereo not given in full) | 240 | –

These reach a lower Ki (Melanocortin receptor 4 [1]). Values come first.

Ki (Melanocortin receptor 4 [1]) [nM] | Structure (SMILES) | other results
71 | Cc1cc(CC(C)C(=O)N2CCN(c3ccc(C(F)(F)F)cc3[C@@H](N)CC(C)C)CC2)ccc1Cl (stereo not given in full) | –
67 | CC(C)C[C@H](N)c1cc(Cl)ccc1N1CCN(C(=O)C(C)Cc2ccc(Cl)cc2)CC1 (stereo not given in full) | –
67 | CC(C)C[C@H](N)c1ccccc1N1CCN(C(=O)[C@H](C)Cc2ccc(Cl)cc2F)CC1 | –
60 | CC(C)C[C@H](N)c1cc(C(F)(F)F)ccc1N1CCN(C(=O)C(C)Cc2ccc(Cl)cc2F)CC1 (stereo not given in full) | –
47 | CC(C)C[C@H](N)c1cc(C(F)(F)F)ccc1N1CCN(C(=O)C(C)Cc2ccc(Cl)cc2)CC1 (stereo not given in full) | –
38 | Cc1cc(Cl)ccc1CC(C)C(=O)N1CCN(c2ccc(C(F)(F)F)cc2[C@@H](N)CC(C)C)CC1 (stereo not given in full) | –
36 | CC(C)C[C@H](N)c1cc(C(F)(F)F)ccc1N1CCN(C(=O)C(C)Cc2ccc(Cl)cc2O)CC1 (stereo not given in full) | –
31 | COc1cc(Cl)ccc1C[C@H](C)C(=O)N1CCN(c2ccc(C(F)(F)F)cc2[C@@H](N)CC(C)C)CC1 | –
31 | CC(C)C[C@H](N)c1cc(C(F)(F)F)ccc1N1CCN(C(=O)[C@H](C)Cc2ccc(Cl)cc2)CC1 | –
26 | CC(C)C[C@H](N)c1cc(C(F)(F)F)ccc1N1CCN(C(=O)[C@H](C)Cc2ccc(Cl)cc2Cl)CC1 | –
25 | Cc1ccc(N2CCN(C(=O)[C@H](C)Cc3ccc(Cl)cc3)CC2)c([C@@H](N)CC(C)C)c1 | bioavailability [2]: 34.4%; Ki (Melanocortin receptor 3): 1300 nM; Tmax [3]: 0.5 h; half-life [4]: 3.5 h; concentration at 1 h [5]: 940 ng/g; Cmax [6]: 267 ng/mL; Ki [7]: 3100 nM; Vd [8]: 10.2 L/kg; IC50 (Melanocortin receptor 4 [9]): 560 nM; AUC (Mus musculus [10]): 1760 ng·h/mL; logD [11]: 3; concentration at 4 h [12]: 330 ng/g; AUC (Mus musculus [13]): 2560 ng·h/mL; clearance [14]: 33.3 mL/min/kg; Ki (Melanocortin receptor 5): 1000 nM
20 | Cc1ccc(N2CCN(C(=O)[C@H](C)Cc3ccc(Cl)cc3F)CC2)c([C@@H](N)CC(C)C)c1 | –
16 | CC(C)C[C@H](N)c1ccccc1N1CCN(C(=O)[C@H](C)Cc2ccc(Cl)cc2Cl)CC1 | –
14 | COc1cc(Cl)ccc1CC(C)C(=O)N1CCN(c2ccc(C(F)(F)F)cc2[C@@H](N)CC(C)C)CC1 (stereo not given in full) | bioavailability [2]: 8.6%; Ki (Melanocortin receptor 3): 320 nM; Tmax [3]: 0.25 h; half-life [4]: 1.9 h; concentration at 1 h [5]: 735 ng/g; Cmax [6]: 99 ng/mL; Activity [7]: 23%; Vd [8]: 10.3 L/kg; IC50 (Melanocortin receptor 4 [9]): 1700 nM; AUC (Mus musculus [10]): 249 ng·h/mL; logD [11]: > 4; concentration at 4 h [12]: 122 ng/g; AUC (Mus musculus [13]): 1450 ng·h/mL; clearance [14]: 62.3 mL/min/kg; Ki (Melanocortin receptor 5): 86 nM
12 | Cc1cc(Cl)ccc1C[C@@H](C)C(=O)N1CCN(c2ccccc2[C@@H](N)CC(C)C)CC1 | –
9.1 | COc1cc(Cl)ccc1CC(C)C(=O)N1CCN(c2ccc(Cl)cc2[C@@H](N)CC(C)C)CC1 (stereo not given in full) | –
8.8 | Cc1ccc(N2CCN(C(=O)[C@H](C)Cc3ccc(Cl)cc3Cl)CC2)c([C@@H](N)CC(C)C)c1 | –
8.1 | COc1cc(Cl)ccc1C[C@@H](C)C(=O)N1CCN(c2ccc(C)cc2[C@@H](N)CC(C)C)CC1 | –
6.5 | COc1cc(Cl)ccc1C[C@@H](C)C(=O)N1CCN(c2ccc(C(F)(F)F)cc2[C@@H](N)CC(C)C)CC1 | –
5.9 | Cc1ccc(N2CCN(C(=O)[C@H](C)Cc3ccc(Cl)cc3C)CC2)c([C@@H](N)CC(C)C)c1 | –
